The term solubility denotes the dissolved amount per volume that the medium holds.

This note sets out measurements from patent publication EP0550008A2, “Use of N-acyl derivatives of aminoalcohols with polycarboxylic acids for the manufacture of a medicament for the treatment of pathologies relating to mast cells” (LIFEGROUP S.p.A., priority 1991, dated 1993).

One series is described as follows: solubility in water. Type of series: physicochemical.
Series [1] is described as follows: solubility in organic solvents. Type of series: physicochemical. The conditions noted are these: organic solvent or mixture.
In series [2] the test system is mast cells degranulation. As to the kind of experiment: in vivo mast cell degranulation induced by substance P in the auricular pinna, systemic subcutaneous pretreatment. Also on record: species or system Sprague Dawley rats. As for the experimental part: • 2 weeks old Sprague […] rats, provided by Charles River from Calco, were locally treated by intradermal injection on the auricular pinna with the compounds in question at the dose of 0.5mg/kg, in a buffered aqueous solution at physiological pH. After 10 minutes a local administration, still by intradermal route, followed, of the substance P (10^-4 M), able to induce a mast cells degranulation response. After 30' from the subtance P administration, the animals were sacrificed and the relative tissue samples (pinna) were taken, for an analysis of the morphological aspect of the mast cells residing in the connectival tissues after fixation and coloration with toluidine blue. The inhibition degree in mast cells degranulation in the tissues of the animals treated with the compounds under question, and compared with those of animals treated only with the physiological degranulation factor (substance P) was considered as a parameter for the biological activity. […] The pharmacologic activity of the compounds under question was also verified under conditions of a systemic subcutaneous administration. In this case the animals were firstly treated with 20 mg/kg of the substances under question and after 30 minutes were exposed to the degranulation stimulus with the substance P (10^-6 M) in the auricular pinna. Then we proceeded as previously described. In Tab.2 the obtained results are reported on an average of 500-800 cells. Tab.2

Series [3] concerns mast cells degranulation. The series can be described thus: in vivo mast cell degranulation induced by substance P in the auricular pinna, intradermal (local) pretreatment. Set-up: species or system Sprague Pawley rats. The conditions noted are these: compound 0.5 mg/kg intradermal on the auricular pinna, substance P (10⁻⁴ M) intradermal after 10 minutes, sacrifice 30' later. The protocol:
• 2 weeks old Sprague Pawley rats, provided by Charles River from Calco, were locally treated by intradermal injection on the auricular pinna with the compounds in question at the dose of 0.5mg/kg, in a buffered aqueous solution at physiological pH. After 10 minutes a local administration, still by intradermal route, followed, of the substance P (10⁻⁴ M), able to induce a mast cells degranulation response. After 30' from the subtance P administration, the animals were sacrificed and the relative tissue samples (pinna) were taken, for an analysis of the morphological aspect of the mast cells residing in the connectival tissues after fixation and coloration with toluidine blue. The inhibition degree in mast cells degranulation in the tissues of the animals treated with the compounds under question, and compared with those of animals treated only with the physiological degranulation factor (substance P) was considered as a parameter for the biological activity.

Series [4] deals with Peritoneal mast cells of rat. The series can be described thus: in vitro degranulation of cultured peritoneal mast cells stimulated with substance P. Type of series: cell-based. The protocol: Peritoneal mast cells of rat were taken according to the standard methodology described by Lagunoff (1975, Tech. Biochem. Biophys. Morphol. , 2, pp. 289-305).
The cells were then cultured in MEM which 10% fetal calf serum was added to and then incubated in a Haereus^R incubator for 30 minutes.
The derivatives under question at the concentration of 10⁻⁵ M were added to the incubation medium .
At the end of the incubation the physiological degranulation stimulus represented by the substance P (10⁻⁴) was added.
The cells were then centrifugated in order to remove the supernatant formed by the incubation medium and placed onto the slide after coloration with toluidine blue, for the analysis of the morphological aspect at the optical microcope.
Also under these conditions the parameter to be considered was the percentage of degranulated cells after stimulation with the Substance P.

[5] abbreviates: compound 20 mg/kg subcutaneous, substance P (10⁻⁶ M) in the auricular pinna after 30 minutes, average of 500-800 cells.
Setting [6] is: compound 10⁻⁵ M in the incubation medium, 30 minutes, then substance P (10⁻⁴).

Consider `O=C(CC(O)C(=O)NCCO)NCCO` (racemic) [(8), N,N'-bis (2-hydroxyethyl)-(+/-)2-hydroxysuccinimide], for which the solubility (in the series “solubility in water”; in series [1] (in DMSO)) was above 10000 µg/mL each time. Besides, the “% of cells undergoing degranulation” value in the series with mast cells degranulation [2] (setting [5]) is recorded as 31%.
Take `O=C(/C=C/C(=O)NCCO)NCCO` [(1), N-fumaroylethanolamide]: the solubility (in the series “solubility in water”; in series [1] (in DMSO); in series [1] (in hot ethanol)) was below 20000 µg/mL throughout. Besides, the “% of cells undergoing degranulation” value with mast cells degranulation [3] is 40%; with mast cells degranulation [2] (setting [5]), 28%; in series [4] (setting [6]) it was 35%.
Consider `O=C(/C=C/C(=O)N(CCO)CCO)N(CCO)CCO` [(2), N,N,N',N'-tetra (2-hydroxyethyl)-fumaroyl-diamide], for which the solubility (in “solubility in water”; in series [1] (in DMSO); in series [1] (in hot ethanol)) was above 10000 µg/mL each time. Moreover, the “% of cells undergoing degranulation” value amounted to 32% with mast cells degranulation [2] (setting [5]) and 30% in series [4] (setting [6]).
Consider `O=C(CCCCCCCC(=O)NCCO)NCCO` [(3), N,N'-bis-(2-hydroxyethyl)-nonandiamide], for which, in series [1] (solvent not stated), the solubility is above 10000 µg/mL. The “% of cells undergoing degranulation” value (with mast cells degranulation [3]; in the series with mast cells degranulation [2] (setting [5]); in series [4] (setting [6])) was 30% in each case.
With `O=C(CCC(=O)NCCO)NCCO` [(4), N,N'-bis-(2-hydroxyethyl)-succinamide], the solubility in series [1] (in DMSO) was above 10000 µg/mL. Further, the entries for the “% of cells undergoing degranulation” value (with mast cells degranulation [2] (setting [5]); in series [4] (setting [6])) were 32% and 35%, respectively.
For the compound `O=C(NCCO)C(=O)NCCO` [(5), N,N'-bis(2-hydroxyethyl)-oxalyldiamide], the solubility (in the series “solubility in water”; in series [1] (in DMSO)) was above 10000 µg/mL throughout. In the series on mast cells degranulation [2] (setting [5]), the “% of cells undergoing degranulation” value was 45.5%.
For `O=C(/C=C/CCCCCCCCC(=O)NCCO)NCCO` [(6), N,N'-bis (2-hydroxyethyl)trans-2-dodecendiamide], the solubility (in “solubility in water” (at 95 °C); in series [1] (in DMSO); in series [1] (in ethanol)) was above 10000 µg/mL throughout. Further, the “% of cells undergoing degranulation” value in the series on mast cells degranulation [2] (setting [5]) is 33.6%.
As for `O=C(CC(=O)NCCO)NCCO` [(7), N,N' -(2-hydroxyethyl)-malondiamide], the solubility in the series “solubility in water” is above 10000 µg/mL; in series [1] (in DMSO), above 5000 µg/mL; in series [1] (in ethanol), above 10000 µg/mL. Also, the “% of cells undergoing degranulation” value in the series with mast cells degranulation [2] (setting [5]) is reported as 35%.
Regarding `O=C(NCCO)[C@H](O)[C@@H](O)C(=O)NCCO` [(9), (R,R)-(+) 2,3-dihydroxy-N,N'-bis (2-hydroxyethyl)-succinamide], the solubility (in the series “solubility in water”; in series [1] (in DMSO)) was above 10000 µg/mL each time. The “% of cells undergoing degranulation” value in the series on mast cells degranulation [2] (setting [5]) came out at 32%.
Consider `CC(O)CNC(=O)/C=C/C(=O)NCC(C)O` (stereo not shown) [(10), N,N'-bis (2-hydroxypropyl)-fumaroyldiamide], for which the solubility (in the series “solubility in water”; in series [1] (in DMSO)) was above 10000 µg/mL each time. Besides, in the series on mast cells degranulation [2] (setting [5]), the “% of cells undergoing degranulation” value is 38%.
Consider `O=C(NCCO)c1cc(=O)c2c(OCC(O)COc3cccc4oc(C(=O)NCCO)cc(=O)c34)cccc2o1` [(11), N,N'-bis (2-hydroxyethyl)-cromoglycholyldiamide], for which the solubility (in “solubility in water”; in series [1] (in DMSO)) was above 10000 µg/mL each time. The “% of cells undergoing degranulation” value in the series with mast cells degranulation [2] (setting [5]) is 28.6%.
As for `NC(CC(=O)NCCO)C(=O)NCCO` (stereo not shown) [(12), N,N'-bis (2-hydroxyethyl)-aspartyldiamide], the solubility (in the series “solubility in water”; in series [1] (in DMSO)) was above 10000 µg/mL each time. Also, the “% of cells undergoing degranulation” value in the series on mast cells degranulation [2] (setting [5]) is recorded as 30%.
As to `O=C(NCCO)c1ccccc1C(=O)NCCO` [(13), N,N' -bis (2-hydroxyethyl)-phthaloyldiamide], the solubility (in “solubility in water”; in series [1] (in ethanol)) was above 10000 µg/mL each time. In addition, the “% of cells undergoing degranulation” value in the series on mast cells degranulation [2] (setting [5]) was found to be 35.5%.
As to `O=C(/C=C/C=C/C(=O)NCCO)NCCO` [(14), N,N'-bis (2-hydroxyethyl)-trans,trans-muconoyldiamide], the solubility (in “solubility in water”; in series [1] (in DMSO)) was above 10000 µg/mL each time. The “% of cells undergoing degranulation” value in the series with mast cells degranulation [2] (setting [5]) amounted to 40.2%.
With `O=C(CCCC(=O)NCCO)NCCO` [(15), N,N'-bis-(2-hydroxyethyl)-glutaroyldiamide], the solubility (in the series “solubility in water”; in series [1] (in DMSO)) was above 10000 µg/mL throughout. The “% of cells undergoing degranulation” value with mast cells degranulation [2] (setting [5]) was found to be 30%.
With `CSCC[C@H](NC(=O)[C@H](CC(C)C)NC(=O)CNC(=O)[C@H](Cc1ccccc1)NC(=O)[C@H](Cc1ccccc1)NC(=O)[C@H](CCC(N)=O)NC(=O)[C@H](CCC(N)=O)NC(=O)[C@@H]1CCCN1C(=O)[C@H](CCCCN)NC(=O)[C@@H]1CCCN1C(=O)[C@@H](N)CCCNC(=N)N)C(N)=O` [substance P, reference compound], the “% of cells undergoing degranulation” value came to 92% in the series on mast cells degranulation [2] (substance P (10⁻⁶ M) in the auricular pinna alone, no pretreatment) and 96% in series [4] (substance P (10⁻⁴) alone).
